# Results reported in patent US20220291235A1, “ACOUSTO-THERMAL SHIFT ASSAY FOR LABEL-FREE PROTEIN ANALYSIS” (THE REGENTS OF THE UNIVERSITY OF COLORADO - A BODY CORPORATE, priority 2019, published 2022).
# Assays:
# [1] = target: T1, citrate synthase (CS) from porcine heart (Sus scrofa, UniProt P00889); test: Conventional thermal shift assay, BCA assay (BCA-TSA), CS-OAA binding
# T1 construct: citrate synthase (CS) from porcine heart (Millipore Sigma); purchased Millipore Sigma; host or cells: porcine heart
# T1 sequence (P00889 28-464): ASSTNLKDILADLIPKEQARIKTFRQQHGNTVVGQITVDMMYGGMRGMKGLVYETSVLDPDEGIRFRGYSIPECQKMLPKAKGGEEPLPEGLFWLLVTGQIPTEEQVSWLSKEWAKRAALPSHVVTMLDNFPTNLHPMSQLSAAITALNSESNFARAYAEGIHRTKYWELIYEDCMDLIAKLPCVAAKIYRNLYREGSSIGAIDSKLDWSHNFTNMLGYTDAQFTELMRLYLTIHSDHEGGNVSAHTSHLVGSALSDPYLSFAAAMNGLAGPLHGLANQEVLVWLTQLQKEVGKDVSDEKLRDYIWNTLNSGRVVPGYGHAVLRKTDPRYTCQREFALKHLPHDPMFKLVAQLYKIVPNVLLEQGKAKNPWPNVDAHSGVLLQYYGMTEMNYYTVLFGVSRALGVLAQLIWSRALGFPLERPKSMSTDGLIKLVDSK
# Protocol: (§1) In some embodiments, SAW-driven protein unfolding and concentration can be used for analysis of protein-ligand binding to analyze the melting temperature (Tm) and its shift (Δtm) upon protein-ligand binding. Gray intensity of the precipitated and concentrated proteins was measured and plotted as a function of SAW time in A-TSA. See, FIG. 5A. Two control conventional TSA methods were performed in parallel measuring the data using either a differential scanning fluorimetry (DSF) assay or a bicinchoninic acid (BCA) assay. DSF, the most popular C-TSA method, utilizes dye fluorescence as a measure of protein unfolding. Matulis et al., “Thermodynamic stability of carbonic anhydrase: measurements of binding affinity and stoichiometry using ThermoFluor” J. Biochemistry 44:5258-5266 (2005). On the other hand, BCA quantifies the amount of remaining soluble proteins after thermal unfolding. Brown et al., “Protein measurement using bicinchoninic acid: elimination of interfering substances” Anal. Biochem. 180:136-139 (1989). BCA assay: For thermal gradient profiling, a gradient program was created using a PTC-200 thermal cycler (MJ Research, Reno, N.V., USA) to cover the temperature points indicated in each figure. A PCR plate was prepared with 25 μL per well of recombinant protein or lysate and sealed (4titude Random Access, PN 4ti-0960/RA 96-well plate). […]
# [2] = target: T1, citrate synthase (CS) from porcine heart; test: Conventional thermal shift assay, SYPRO DSF assay (DSF-TSA), CS-OAA binding; conditions: OAA present
# Protocol: In some embodiments, SAW-driven protein unfolding and concentration can be used for analysis of protein-ligand binding to analyze the melting temperature (Tm) and its shift (Δtm) upon protein-ligand binding. Gray intensity of the precipitated and concentrated proteins was measured and plotted as a function of SAW time in A-TSA. See, FIG. 5A. Two control conventional TSA methods were performed in parallel measuring the data using either a differential scanning fluorimetry (DSF) assay or a bicinchoninic acid (BCA) assay. DSF, the most popular C-TSA method, utilizes dye fluorescence as a measure of protein unfolding. Matulis et al., “Thermodynamic stability of carbonic anhydrase: measurements of binding affinity and stoichiometry using ThermoFluor” J. Biochemistry 44:5258-5266 (2005). On the other hand, BCA quantifies the amount of remaining soluble proteins after thermal unfolding. Brown et al., “Protein measurement using bicinchoninic acid: elimination of interfering substances” Anal. Biochem. 180:136-139 (1989).
# SYPRO DSF assay: SYPRO Orange melting curves were collected using the 7900HT Fast Real-Time PCR System. […] To analyze melting curves, the fluorescence was normalized to the starting temperature and to no protein controls. The data was then scaled to interval (0,1) and then the replicates were averaged, and standard deviation calculated.
# [3] = target: T1, citrate synthase (CS) from porcine heart; test: Acousto-thermal shift assay (A-TSA), CS-OAA binding; conditions: same SAW actuation (19.6 MHz, 3 Watts), CS 15 μM
# Excerpt: (§2) Specifically, two identical SAWs were generated by applying an AC (alternating current) signal to a pair of interdigital transducers (IDTs) deposited on the surface of a lithium niobate piezoelectric substrate. A standing SAW was formed within a 1×10 mm^2 polydimethylsiloxane (PDMS) microchannel. The microchannel was bonded on top of a substrate between these two IDTs. See, FIGS. 4A(i) and FIG. 4B. […] Most proteins rapidly precipitate and aggregate after their unfolding. See, FIG. 4A(ii).
# (§3) Simultaneously, the standing SAW aggregates and concentrates precipitated protein along the acoustic pressure nodes and/or antinodes. See, FIG. 4A(iii). Gray intensity (Im) of the precipitated and aggregated proteins was analyzed and plotted as a function of SAW time, giving rise to a sigmoidal melting curve. See, FIG. 4A(iv). The melting time (Tm) was determined as the time point when half of proteins were unfolded (i.e. herein, a 50% change of gray intensity occurs where Im=(Imax+Imin)/2.). Using this simple analysis, the time shift Δτm between between two samples can be measured at a given SAW power and analyzed to compare conditions or ligands that stabilize or destabilize proteins. Overall, this new technique provides a rapid, simple and efficient workflow for analysis of changes in apparent melting curves. […]
# human hemoglobin (Hb) [4] = target: T2, human hemoglobin (Hb) (Homo sapiens, UniProt P68871+P69905); test: Acousto-thermal shift assay (A-TSA), Hb-Pal binding; conditions: SAW 19.6 MHz, 3 Watts, Hb 31 μM
# T2 construct: purchased Millipore Sigma
# Excerpt: as §2, §3
# human hemoglobin (Hb) [5] = target: T2, human hemoglobin (Hb); test: Conventional thermal shift assay, BCA assay (BCA-TSA), Hb-Pal binding
# Protocol: as §1
# T2 sequence (P69905 2-142 limits assumed): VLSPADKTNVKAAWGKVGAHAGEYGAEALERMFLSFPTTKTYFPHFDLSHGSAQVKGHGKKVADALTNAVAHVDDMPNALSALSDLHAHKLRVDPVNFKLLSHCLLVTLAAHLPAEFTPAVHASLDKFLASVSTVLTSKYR
# T2 sequence (P68871 2-147 limits assumed): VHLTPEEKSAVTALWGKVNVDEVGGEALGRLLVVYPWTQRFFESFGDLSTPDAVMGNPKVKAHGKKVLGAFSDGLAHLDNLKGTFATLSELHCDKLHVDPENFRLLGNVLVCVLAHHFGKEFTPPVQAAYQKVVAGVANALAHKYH
increase of Tm of CS (60.3° C.) upon ligand binding ([1]; 1 mM OAA) [°C],increase of Tm of CS (60.3° C.) upon ligand binding ([1]; 2 mM OAA) [°C],tm shift of CS as detected in DSF assay [2],increase of tm of CS (36.23 s) upon ligand binding ([3]; 1 mM OAA) [s],increase of tm of CS (36.23 s) upon ligand binding ([3]; 2 mM OAA) [s],reduction of melting time (Tm) of Hb (46.85 s) upon ligand binding (human hemoglobin (Hb) [4]; 0.62 mM Pal) [s],reduction of melting time (Tm) of Hb (46.85 s) upon ligand binding (human hemoglobin (Hb) [4]; 1.24 mM Pal) [s],decrease of Tm of Hb (59.1° C.) upon ligand binding (human hemoglobin (Hb) [5]; 0.62 mM Pal) [°C],decrease of Tm of Hb (59.1° C.) upon ligand binding (human hemoglobin (Hb) [5]; 1.24 mM Pal) [°C],Compound
2.0,2.9,small and not statistically significant,10.45,15.77,,,,,"O=C(O)CC(=O)C(=O)O [OAA, oxaloacetic acid]"
,,,,,3.52,7.30,0.7,1.1,"COc1cc2c(cc1OC)-c1cc3ccc(OC)c(OC)c3c[n+]1CC2 [Pal, palmatine chloride]"
